Test results: US20260207514A1, “Clofazimine Mini-Tablets for Treatment of Tuberculosis in Pediatrics” (Via Therapeutics, LLC, priority 2022, published 2026)
In brackets after ≈: the same amount, converted by molar mass. Like-named read-outs stand apart in the source and are kept apart here.

Experiments:
physchem = assay type: physicochemical; settings: thermodynamic from solid, read-out: CFZ saturation solubility
[1] = Stress testing of micronized CFZ with excipient blends (compatibility, HPLC assay and related substances); assay type: physicochemical
Procedure: Clofazimine degradation was assessed using the high pressure liquid chromatography (HPLC) method published in the United States Pharmacopeia monograph for the drug (U.S.P., 2021) The mobile phase consisted of a 65:35 mixture of acetonitrile and an aqueous buffer consisting of 4.5 g/L sodium dodecyl sulfate, 1.7 g/L tetrabutylammonium hydrogen sulfate and 21.8 g/L Na2HPO4 adjusted to pH 3.0. Flow rate was 1.0 mL/min and infection volume was 20 μL. A LiChromspher® RP-8 100 column (250×4.6, 5 μm) (Millipore Sigma) was used. Measurements were performed using an Agilent 1100 HPLC with diode array detector set at 280 nm. […] Hydrophobic PTFE 0.22 μm filters were used for sample filtration prior to analysis.
Stress testing of micronized CFZ in combination with commercially available tableting excipient blends was performed to establish potential mechanisms of drug degradation and streamline excipient selection for mini-tablet preparation. Two different blends were assessed: Prosolv® EasyTab SP (JRS Pharma) and Ludipress® (BASF).
Additionally, Eudragit® E PO was assessed, as a potential candidate for functional coating of the mini-tablets to prevent CFZ release in the saliva and subsequent staining of the mouth. Binary mixtures of micronized CFZ and excipient blends and micronized CFZ and Eudragit E PO were prepared at 1:1 weight ratios. Blends of CFZ with Prosolv EasyTab SP, Ludipress, or Eudragit E PO were left open or in closed HPDE vials and stored for 18 days at 70° C./20% relative humidity (RH) or 70° C./75% RH, which was the thermal equivalent of 6 months of storage. As a control, micronized CFZ alone and each excipient blend alone were stored open at each condition.
HPLC analysis was performed on day 0 for CFZ alone and CFZ with each excipient, as well as on day 18 for the same samples at each temperature and humidity condition. Assay values (% recovery) for all samples was determined by comparing peak area to a reference standard and correcting for sample water content measured by Karl Fischer titration method, and related substances were reported by relative retention time (RRT) to the reference CFZ peak.

[2] = Particle size distribution of milled powder by laser diffraction; assay type: physicochemical; settings: jet-milled powder, RODOS 4 bar
Procedure: Clofazimine (CFZ) (Midas Pharma GmbH) was micronized by Lonza Group AG using a 10-inch spiral jet mill at 3 kg/hr feed rate and 100 psi grinding pressure. Particle size distribution of the milled powder was determined using a laser diffractor (HELOS, Sympatec GmbH) with RODOS dry powder disperser set at 4 bar dispersion pressure and 20% rotation.

[3] = 1 mg/kg per day, average 105.6 days, average age 5.8 years; cited from earlier work

## CC(C)/N=c1\cc2n(-c3ccc(Cl)cc3)c3ccccc3nc-2cc1Nc1ccc(Cl)cc1 [CFZ, clofazimine]
physchem; fassgf or other biorelevant, in FaSSGF
  solubility: 0.092 ± 0.004 µg/mL (≈ 0.194 µM)
physchem; fassgf or other biorelevant, in FeSSGF
  solubility: 20.1 ± 1.86 µg/mL (≈ 42.5 µM)
physchem; fessif, in FeSSIF
  solubility: 14.9 ± 1.5 µg/mL (≈ 31.5 µM)
[1]; 70 C./20% RH, Open, 18 days
  Impurity (% Area) RRT 0.82: 0.113 % Area
  Impurity (% Area) RRT 0.88: 0.117 % Area
[1]; 70 C./75% RH, Open, 18 days
  Impurity (% Area) RRT 0.82: 0.096 % Area
  Impurity (% Area) RRT 0.88: 0.126 % Area
  Impurity (% Area) RRT 0.94: <0.05 % Area
[1]; Initial (day 0)
  Impurity (% Area) RRT 0.82: 0.096 % Area
  Impurity (% Area) RRT 0.88: 0.109 % Area
[2]
  X10 diameter: 0.66 μm
  X50 diameter: 1.47 μm
  X90 diameter: 3.50 μm
[3]
  adverse effects: limited to skin discoloration and gastrointestinal symptoms
